From patent publication US20040097377A1, “Pesticidal spinosyn derivates” (priority 2003, published 2004)

What was measured:
[1] = tested on: Tobacco Budworm (Heliothis virescens); test: Tobacco budworm feeding bioassay (egg and larval stage, 96-well agar diet plate, percent mortality); assay type: in vivo; details: average of three replicates
Experimental: (§1) Tobacco Budworm (Heliothis virescens) and Beet Armyworm (Spodoptera littoralis) Feeding Bioassay
(§2) To compare insecticidal activities of the test compounds against egg and larval stage Heliothis virescens or Spodoptera littoralis, 50 ul of a 1:1 acetone:water solution was added to each sample and then solublized for one-hour using an orbital shaker. Each of the resulting sample solutions (50, 120, or 250 ppm) was then applied to a well in a 96-well microtiter plate, each well containing an artificial agar-based lepidoptera diet (modified Shorey diet, Southland Products, Lake Village, Ariz.). Each sample was run in triplicate. Plates were allowed to dry for about 4 hours, covered and held for infestation the next day. Each well of the treated plate was infested with 3-5 eggs (0-2 days old) of either H. virescens or S. littoralis. Plates were then covered with cotton batting and sealed with microplate lid. The treated plates were held inverted in an incubator (80+% rh) for six to seven days. Following the incubation period, the plates were graded for percent mortality using a binocular microscope. Data for each sample was reported as the average percent mortality of the three replicates.

[2] = tested on: Beet Armyworm (Spodoptera littoralis); test: Beet armyworm feeding bioassay (egg and larval stage, 96-well agar diet plate, percent mortality); assay type: in vivo; details: average of three replicates
Experimental: as §1, §2

Compound | Tobacco Budworm Diet (6 day) Mortality (%) ([1]; Rate 50 ppm) | Beet Armyworm Diet (6 day) Mortality (%) ([2]; Rate 50 ppm) | Tobacco Budworm Diet (6 day) Mortality (%) ([1]; Rate 120 ppm) | Beet Armyworm Diet (6 day) Mortality (%) ([2]; Rate 120 ppm)
CCC=CC1CCCC(OC2CCC(N(C)C)C(C)O2)C(C)C(=O)C2=CC3C(C=CC4CC(OC5OC(C)C(O)C(O)C5O)CC43)C2CC(=O)O1 (stereo not shown) [Compound 33, for-(2′,3′,4′-tri-O-desmethyl-rham)-I] | 100% | 100% | – | –
CCC=CC1CCCC(OC2CCC(NC)C(C)O2)C(C)C(=O)C2=CC3C(C=CC4CC(OC5OC(C)C(OC)C(O)C5OC)CC43)C2CC(=O)O1 (stereo not shown) [Compound 137, (4″-N-desmethyl-for)-(3′-O-desmethyl-rham)-I] | – | – | 100% | 100%
CCC=CC1CCCC(OC2CCC(N(C)C)C(C)O2)C(C)C(=O)C2=CC3C(C=CC4CC(OC5OC(C)C(OC)C(OC)C5O)CC43)C2CC(=O)O1 (stereo not shown) [Compound 5, for-(2′-O-desmethylrham)-I] | 100% | 100% | – | –
CCC=CC1CCCC(OC2CCC(N(C)C)C(C)O2)C(C)C(=O)C2=CC3C(C=CC4CC(OC5OC(C)C(OC)C(OC)C5OC)CC43)C2CC(=O)O1 (stereo not shown) [Compound 1, for-rham-I, reference compound] | 100% | 100% | – | –
CCC=CC1CCCC(OC2CCC(N(C)C)C(C)O2)C(C)C(=O)C2=CC3C(C=CC4C(O)C(OC5OC(C)C(O)C(OC)C5OC)CC43)C2CC(=O)O1 (stereo not shown) [Compound 34, for-(4′-O-desmethyl-rham)-III] | 100% | 100% | – | –
CCC=CC1CCCC(OC2CCC(N(C)C)C(C)O2)C(C)C(=O)C2=CC3C(C=CC4CC(OC5OC(C)C(O)C(O)C5OC)CC43)C2CC(=O)O1 (stereo not shown) [Compound 37] | 100% | 100% | – | –
CCC=CC1CCCC(OC2CCC(N(C)C)C(C)O2)C(C)C(=O)C2=CC3C(C=CC4C(O)C(OC5OC(C)C(OC)C(O)C5OC)CC43)C2CC(=O)O1 (stereo not shown) [Compound 41, for-(3′-O-desmethyl-rham) III] | 100% | 100% | – | –
COC1C(C)OC(OC2CC3C=CC4C5CC(=O)OC(C=CC(C)O)CCCC(OC6CCC(N(C)C)C(C)O6)C(C)C(=O)C5=CC4C3C2)C(OC)C1O (stereo not shown) [Compound 141, 24-hydroxy-for-(3′-O-desmethyl-rham)-I] | – | – | 100% | 67%
CCC=CC1CCCC(OC2CCC(N(C)C)C(C)O2)C(C)C(=O)C2=CC3C(C=CC4C(O)C(OC5OC(C)C(O)C(O)C5OC)CC43)C2CC(=O)O1 (stereo not shown) [Compound 40, for-(3′,4′-di-O-desmethyl-rham) III] | 100% | 93% | – | –
CC=CC1CCCC(OC2CCC(N(C)C)C(C)O2)C(C)C(=O)C2=CC3C(C=CC4CC(OC5OC(C)C(O)C(O)C5OC)CC43)C2CC(=O)O1 (stereo not shown) [Compound 43, 24-desmethyl-for-(3′,4′-di-O-desmethyl-rham)-I] | 33% | 80% | – | –
for-(3′,4′-di-O-desmethyl-rham)-IV [Compound 163] | – | – | 100% | 100%
CCC=CC1CCCC(OC2CCC(N(C)C)C(C)O2)C(C)C(=O)C2=CC3C(C=CC4CC(OC5OC(C)C(OC)C(O)C5OC)CC43)C2CC(=O)O1 (stereo not shown) [Compound 6, for-(3′-O-desmethylrham)-I] | 100% | 100% | – | –
CCC=CC1CCCC(OC2CCC(N(C)C)C(C)O2)C(C)C(=O)C2=CC3C(C=CC4CC(OC5OC(C)C(O)C(OC)C5OC)CC43)C2CC(=O)O1 (stereo not shown) [Compound 32, for-(4′-O-desmethyl-rham)-I] | 100% | 100% | – | –
for-(3′,4′-di-O-desmethyl-rham)-II [Compound 44] | 100% | 100% | – | –
